In PubChem BioAssay AID1963967 (Molecular Pharmacology Branch, DTP, NCI, 2024):
pIC50: −log10 of the molar value. Where “and” joins values, the source holds several entries; their conditions need not be identical. Identical values can stand only once.

Tested on: 855422-203-R-J1-PDC spheroids with HUVEC/MSC, viability
Experiment: Anticancer human tumor 855422-203-R-J1-PDC patient-derived bladder carcinoma cell line growth inhibition [PI3K]
Conditions: for viability, T/C: stronger effect = lower value
Source text: Combinatorial screen of targeted agents with the PI3K inhibitors inavolisib, alpelisib, duvelisib, and copanlisib in multi-cell type tumor spheroids
A high-throughput screen of multi-cell type tumor spheroids was designed to identify active combinations of targeted small molecules and PI3K pathway inhibitors. Complex spheroids include a stromal component modeled by human endothelial cells (HUVEC) and fibroblasts modeled by human mesenchymal stem cells (MSCs). The concentration ranges selected for each drug and investigational agent were based upon clinically achievable concentrations if the clinical Cmax of the agent was known.
Compounds. The drugs and investigational agents: inavolisib (NSC800729), alpelisib (NSC765974), duvelisib (NSC772469), copanlisib (NSC816437), ipatasertib (NSC767898), afuresertib (NSC778305), talazoparib (NSC767125), sapanisertib (NSC764658), selumetinib (NSC741078), tovorafenib (DAY101, NSC766906), vemurafenib (NSC761431), ravoxertinib (NSC781343), sotorasib (NSC818433), MRTX1133 (NSC 836407), abemaciclib (NSC 768073), palbociclib (NSC758247), venetoclax (NSC 766270), SY5609 (NSC837396), enzalutamide (NSC755605), and darolutamide (NSC825331), were obtained from the National Cancer Institute (NCI) Developmental Therapeutics Program Chemical Repository. The FDA-approved anticancer drug set is available from the NCI Developmental Therapeutics Program. […] The stock solutions were prepared in dimethyl sulfoxide (DMSO, Sigma-Aldrich, St. Louis, MO, cat. D2650) at 800-fold the tested concentration and stored at -70 degrees C prior to their use. All drugs and investigational agents were tested over a range starting from a high concentration at or near the clinical Cmax and decreasing in half-log increments. If the clinical Cmax for an agent had not been determined, the highest concentration tested was 10 microM.
Cell Culture. All cells were maintained in an incubator at 37 degrees C and 5% CO2 with 95% humidity. The PDC lines were cultured according to standard operating procedures established by the NCI PDMR (https://pdmr.cancer.gov/sops/default.htm). All PDCs were thawed and cultured in Matrigel-coated flasks prepared with a working solution of 1X Ham's F-12 nutrient mix, without supplementation (Invitrogen, Waltham, MA, cat. 11765054), 100 U/mL penicillin-streptomycin (Invitrogen, cat. 15140122), and 2.5% Matrigel (Corning Inc., Corning, NY, cat. 354248) for the first three passages. The 354836-022-R-J1-PDC, 475296-252-R-J1-PDC, and 997726-040-R-J2-PDC lines were cultured in 6A media, which includes advanced DMEM/F-12 (Thermo Fisher Scientific, cat. 12634028), 10 mM HEPES (Thermo Fisher Scientific, cat. 15630080), 1X GlutaMAX supplement (Thermo Fisher Scientific, cat. 35050061), 0.1 mg/mL primocin (InvivoGen, San Diego, CA, cat. ant-pm-2), 10% defined fetal bovine serum, heat inactivated (HyClone Laboratories Inc., Logan, UT, cat. SH30070.03HI), 50% L-WRN conditioned media (ATCC, cat. CRL-3276), 1.25 mM N-Acetyl-L-cysteine (Sigma-Aldrich, cat. A9165), 10 mM nicotinamide (Sigma-Aldrich, cat. N0636), 1X B-27 supplement (Thermo Fisher Scientific, cat. 17504044), 1X N-2 supplement (Thermo Fisher Scientific, cat. 17502048), and 10 microM Y-27632 dihydrochloride (Tocris Bioscience, Bristol, United Kingdom, cat. 1254). The 624824-186-R-J2-PDC line was cultured in 6C/Colon 1B media, which includes all 6A media components plus 50 ng/mL human EGF recombinant protein (Thermo Fisher Scientific, cat. PHG0311). […]

[1] = curve of first compound, second compound 0.0316 µM
[2] = curve of first compound, second compound 0.1 µM
[3] = curve of first compound, second compound 0.316 µM
[4] = curve of first compound, second compound 1 µM
[5] = curve of first compound, second compound 3.16 µM
[6] = curve of first compound, second compound 10 µM
[7] = second compound 0.0316 µM, first compound 0.0316 µM
[8] = second compound 0.0316 µM, first compound 0.1 µM
[9] = second compound 0.0316 µM, first compound 0.316 µM
[10] = second compound 0.0316 µM, first compound 1 µM
[11] = second compound 0.1 µM, first compound 0.0316 µM
[12] = second compound 0.1 µM, first compound 0.1 µM
[13] = second compound 0.1 µM, first compound 0.316 µM
[14] = second compound 0.1 µM, first compound 1 µM
[15] = second compound 0.316 µM, first compound 0.0316 µM
[16] = second compound 0.316 µM, first compound 0.1 µM
[17] = second compound 0.316 µM, first compound 0.316 µM
[18] = second compound 0.316 µM, first compound 1 µM
[19] = second compound 1 µM, first compound 0.0316 µM
[20] = second compound 1 µM, first compound 0.1 µM
[21] = second compound 1 µM, first compound 0.316 µM
[22] = second compound 1 µM, first compound 1 µM
[23] = second compound 3.16 µM, first compound 0.0316 µM
[24] = second compound 3.16 µM, first compound 0.1 µM
[25] = second compound 3.16 µM, first compound 0.316 µM
[26] = second compound 3.16 µM, first compound 1 µM
[27] = second compound 10 µM, first compound 0.0316 µM
[28] = second compound 10 µM, first compound 0.1 µM
[29] = second compound 10 µM, first compound 0.316 µM
[30] = second compound 10 µM, first compound 1 µM
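Note: agents incubated with spheroids for one week before read-out.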
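Throughout, for viability, T/C: 100% = DMSO vehicle-treated control wells.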

With `C#Cc1c(F)ccc2cc(O)cc(-c3ncc4c(N5CC6CCC(C5)N6)nc(OCC56CCCN5CC(F)C6)nc4c3F)c12` (configuration not stated) the viability, T/C (compound 0.0316 µM) was 110% [middle of 4 runs], the viability, T/C (compound 0.1 µM) was 101% (2×) and 94.4% and 83.5% and the viability, T/C (compound 0.316 µM) was 109% [middle of 4 runs]. For the same compound, the viability, T/C (compound 1 µM) was 103% [middle of 4 runs], the viability, T/C (compound 3.16 µM) was 109% [middle of 4 runs] and the viability, T/C (compound 10 µM) was 114% (2×) and 107% and 112%. The pIC50 (curve of compound) was less than 5.00.
`CCN1CCN(Cc2ccc(Nc3ncc(F)c(-c4cc(F)c5nc(C)n(C(C)C)c5c4)n3)nc2)CC1` + Cc1nc(NC(=O)N2CCCC2C(N)=O)sc1-c1ccnc(C(C)(C)C(F)(F)F)c1 showed a pIC50 [1] of 6.25, a pIC50 [2] of 6.09 and a pIC50 [3] of 6.85. The pIC50 [4] was 7.92, the pIC50 [5] was greater than 8.50 and the pIC50 [6] was greater than 8.50. For the same compound, the viability, T/C (second compound 0.0316 µM, first compound 0.00316 µM) was 102%, the viability, T/C (second compound 0.0316 µM, first compound 0.01 µM) was 80.5% and the viability, T/C [7] was 97.1%. It also gave a viability, T/C [8] of 70.4%, a viability, T/C [9] of 60.1% and a viability, T/C [10] of 40.6%. It also gave a viability, T/C (second compound 0.1 µM, first compound 0.00316 µM) of 99.9%, a viability, T/C (second compound 0.1 µM, first compound 0.01 µM) of 90.3% and a viability, T/C [11] of 86%. The viability, T/C [12] was 67.7%, the viability, T/C [13] was 60.6% and the viability, T/C [14] was 47.7%. It also gave a viability, T/C (second compound 0.316 µM, first compound 0.00316 µM) of 80.3%, a viability, T/C (second compound 0.316 µM, first compound 0.01 µM) of 79.7% and a viability, T/C [15] of 65.1%. For the same compound, the viability, T/C [16] was 54.9%, the viability, T/C [17] was 40.4% and the viability, T/C [18] was 28.2%. The viability, T/C (second compound 1 µM, first compound 0.00316 µM) was 57.2%, the viability, T/C (second compound 1 µM, first compound 0.01 µM) was 56.2% and the viability, T/C [19] was 35.2%. The viability, T/C [20] was 34.7%, the viability, T/C [21] was 22% and the viability, T/C [22] was 20.2%. The viability, T/C (second compound 3.16 µM, first compound 0.00316 µM) was 37.1%, the viability, T/C (second compound 3.16 µM, first compound 0.01 µM) was 36.4% and the viability, T/C [23] was 20.3%. The viability, T/C [24] was 18.8%, the viability, T/C [25] was 15.4% and the viability, T/C [26] was 16.1%. The viability, T/C (second compound 10 µM, first compound 0.00316 µM) was 18.5%, the viability, T/C (second compound 10 µM, first compound 0.01 µM) was 12.4% and the viability, T/C [27] was 13.6%. It also gave a viability, T/C [28] of 12.1%, a viability, T/C [29] of 9.73% and a viability, T/C [30] of 11.2%.
`CCCS(=O)(=O)Nc1ccc(F)c(C(=O)c2c[nH]c3ncc(-c4ccc(Cl)cc4)cc23)c1F` was tested, and the viability, T/C (compound 0.1 µM) was 96.7% [middle of 4 runs], the viability, T/C (compound 0.316 µM) was 108% (2×) and 99.2% and 92.2% and the viability, T/C (compound 1 µM) was 87.6% [middle of 4 runs]. For the same compound, the viability, T/C (compound 3.16 µM) was 65.7% [middle of 4 runs], the viability, T/C (compound 10 µM) was 0.53% [middle of 4 runs] and the IC50 (curve of compound) was 4.16 µM [middle of 4 runs].
`C=CC(=O)N1CCN(c2nc(=O)n(-c3c(C)ccnc3C(C)C)c3nc(-c4c(O)cccc4F)c(F)cc23)C(C)C1` (configuration not stated) + CC(Nc1ncnc2nc[nH]c12)c1cc2cccc(Cl)c2c(=O)n1-c1ccccc1 was tested, and the pIC50 [1] was less than 5.00, the pIC50 [2] was less than 5.00 and the pIC50 [3] was less than 5.00. For the same compound, the pIC50 [4] was less than 5.00, the pIC50 [5] was less than 5.00 and the pIC50 [6] was less than 5.00. The viability, T/C [7] was 107%, the viability, T/C [8] was 91.1% and the viability, T/C [9] was 112%. The viability, T/C [10] was 95%, the viability, T/C (second compound 0.0316 µM, first compound 3.16 µM) was 128% and the viability, T/C (second compound 0.0316 µM, first compound 10 µM) was 133%. For the same compound, the viability, T/C [11] was 102%, the viability, T/C [12] was 90.7% and the viability, T/C [13] was 109%. For the same compound, the viability, T/C [14] was 110%, the viability, T/C (second compound 0.1 µM, first compound 3.16 µM) was 119% and the viability, T/C (second compound 0.1 µM, first compound 10 µM) was 129%. It also gave a viability, T/C [15] of 97.5%, a viability, T/C [16] of 92% and a viability, T/C [17] of 98.3%. It also gave a viability, T/C [18] of 121%, a viability, T/C (second compound 0.316 µM, first compound 3.16 µM) of 122% and a viability, T/C (second compound 0.316 µM, first compound 10 µM) of 122%. For the same compound, the viability, T/C [19] was 100%, the viability, T/C [20] was 98.7% and the viability, T/C [21] was 112%. It also gave a viability, T/C [22] of 117%, a viability, T/C (second compound 1 µM, first compound 3.16 µM) of 122% and a viability, T/C (second compound 1 µM, first compound 10 µM) of 110%. The viability, T/C [23] was 102%, the viability, T/C [24] was 102% and the viability, T/C [25] was 104%. It also gave a viability, T/C [26] of 115%, a viability, T/C (second compound 3.16 µM, first compound 3.16 µM) of 116% and a viability, T/C (second compound 3.16 µM, first compound 10 µM) of 101%. The viability, T/C [27] was 108%, the viability, T/C [28] was 90.4% and the viability, T/C [29] was 104%. For the same compound, the viability, T/C [30] was 102%, the viability, T/C (second compound 10 µM, first compound 3.16 µM) was 115% and the viability, T/C (second compound 10 µM, first compound 10 µM) was 105%.
